Laboratory results: patent US8993602B2, “Benzoic acid salt of otamixaban” (Sanofi, priority 2011, dated 2015)
Where two headings read alike, the source gives them in different places.

Key:
[1] = test system: acute coronary syndrome; conditions: humans, recent clinical findings; cited from earlier work
[2] = test system: prothrombin fragments 1+2; conditions: highest dose regimen, versus unfractionated heparin; cited from earlier work
[3] = target: T1, factor Xa (Homo sapiens, UniProt P00742); conditions: patients with stable coronary artery disease on usual comedication, some with mild renal impairment; cited from earlier work
T1 construct: from tissue; host or cells: blood of patients (in vivo; result quoted from Hinder et al. 2006)

[4] = target: free factor Xa (Homo sapiens, UniProt P00742); conditions: cited from earlier work
[5] = target: factor Xa assembled in the prothrombinase complex (Factor Xa, Factor Va, calcium and phospholipid) (Homo sapiens, UniProt P00742); conditions: cited from earlier work
[6] = test system: models of thrombosis; conditions: rodent, canine and porcine models; cited from earlier work
[7] = for hygroscopicity (absorption or adsorption of water molecules from the surrounding environment): result in words
Experimental: Moreover, crystalline benzoic acid salt of Formula I may also be characterized by its dynamic vapor sorption (DVS) water vapor sorption and desorption isotherms measured at 25° C. Before starting the sorption cycle the crystalline salt of Formula I sample is treated with dry nitrogen gas.
Moisture sorption/desorption isotherms were recorded on a DVS-1000 from Surface Measurement Systems. […] Typical total measurement times for both cycles were about 20 to 30 hours.

free factor Xa, sequence (P00742 235-488 limits assumed): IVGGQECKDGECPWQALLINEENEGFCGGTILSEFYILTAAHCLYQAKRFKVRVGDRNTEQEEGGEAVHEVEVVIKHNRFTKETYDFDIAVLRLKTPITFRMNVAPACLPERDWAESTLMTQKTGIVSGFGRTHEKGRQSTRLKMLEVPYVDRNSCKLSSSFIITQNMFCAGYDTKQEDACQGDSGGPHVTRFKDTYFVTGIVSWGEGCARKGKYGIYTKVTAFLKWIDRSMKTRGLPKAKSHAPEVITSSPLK
free factor Xa, sequence (P00742 41-179 partner limits assumed): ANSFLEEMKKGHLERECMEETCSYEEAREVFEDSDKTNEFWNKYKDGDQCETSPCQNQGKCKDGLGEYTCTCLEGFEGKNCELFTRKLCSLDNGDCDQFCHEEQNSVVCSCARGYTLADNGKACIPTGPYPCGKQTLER
factor Xa assembled in the prothrombinase complex (Factor Xa, Factor Va, calcium and phospholipid), sequence (P00742 235-488 limits assumed): as the sequence (P00742 235-488 limits assumed) above
factor Xa assembled in the prothrombinase complex (Factor Xa, Factor Va, calcium and phospholipid), sequence (P00742 41-179 partner limits assumed): as the sequence (P00742 41-179 partner limits assumed) above
factor Xa assembled in the prothrombinase complex (Factor Xa, Factor Va, calcium and phospholipid), sequence (P12259 29-737 partner limits assumed): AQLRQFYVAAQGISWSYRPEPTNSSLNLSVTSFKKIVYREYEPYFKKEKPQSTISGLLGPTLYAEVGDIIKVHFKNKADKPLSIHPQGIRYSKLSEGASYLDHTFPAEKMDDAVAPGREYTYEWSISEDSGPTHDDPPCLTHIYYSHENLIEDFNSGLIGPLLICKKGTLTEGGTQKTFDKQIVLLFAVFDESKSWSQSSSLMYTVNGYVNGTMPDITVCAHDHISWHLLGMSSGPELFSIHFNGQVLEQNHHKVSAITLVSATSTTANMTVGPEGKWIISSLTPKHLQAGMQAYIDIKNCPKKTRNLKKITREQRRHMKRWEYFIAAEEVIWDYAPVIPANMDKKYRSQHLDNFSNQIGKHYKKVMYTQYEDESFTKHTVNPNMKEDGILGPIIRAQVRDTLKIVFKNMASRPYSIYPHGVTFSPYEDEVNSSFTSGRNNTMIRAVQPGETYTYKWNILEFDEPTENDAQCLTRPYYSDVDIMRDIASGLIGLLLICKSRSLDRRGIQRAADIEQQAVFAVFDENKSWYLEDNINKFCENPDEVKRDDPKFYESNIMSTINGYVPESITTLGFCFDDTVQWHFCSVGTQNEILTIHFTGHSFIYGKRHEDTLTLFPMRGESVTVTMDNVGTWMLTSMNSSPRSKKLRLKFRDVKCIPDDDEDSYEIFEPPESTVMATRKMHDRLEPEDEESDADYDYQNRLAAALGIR
factor Xa assembled in the prothrombinase complex (Factor Xa, Factor Va, calcium and phospholipid), sequence (P12259 1574-2224 partner limits assumed): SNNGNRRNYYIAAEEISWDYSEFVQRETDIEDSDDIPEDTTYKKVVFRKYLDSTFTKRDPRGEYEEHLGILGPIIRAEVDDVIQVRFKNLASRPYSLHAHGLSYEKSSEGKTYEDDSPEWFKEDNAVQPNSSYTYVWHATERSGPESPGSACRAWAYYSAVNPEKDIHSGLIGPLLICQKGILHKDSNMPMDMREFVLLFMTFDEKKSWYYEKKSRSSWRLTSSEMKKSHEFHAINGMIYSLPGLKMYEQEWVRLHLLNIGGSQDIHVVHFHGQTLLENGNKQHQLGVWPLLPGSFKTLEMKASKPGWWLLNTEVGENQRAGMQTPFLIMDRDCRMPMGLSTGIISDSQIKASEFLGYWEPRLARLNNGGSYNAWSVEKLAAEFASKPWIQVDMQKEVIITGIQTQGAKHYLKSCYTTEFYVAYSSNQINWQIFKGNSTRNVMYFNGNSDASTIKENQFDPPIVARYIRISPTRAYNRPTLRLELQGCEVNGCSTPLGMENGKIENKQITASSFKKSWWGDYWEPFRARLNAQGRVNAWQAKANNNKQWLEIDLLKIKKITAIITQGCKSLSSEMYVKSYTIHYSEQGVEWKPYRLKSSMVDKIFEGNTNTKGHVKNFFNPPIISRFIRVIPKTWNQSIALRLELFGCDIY
T1 sequence (P00742 235-488 limits assumed): as the sequence (P00742 235-488 limits assumed) above
T1 sequence (P00742 41-179 partner limits assumed): as the sequence (P00742 41-179 partner limits assumed) above

COC(=O)[C@H](Cc1cccc(C(=N)N)c1)[C@@H](C)NC(=O)c1ccc(-c2cc[n+]([O-])cc2)cc1 (mixture of isomers) [Otamixaban, Methyl(2R,3R)-2-{3-[amino(imino)methyl]benzyl}-3-{[4-(1-oxidopyridin-4-yl)benzoyl]amino}butanoate]
clinical efficacy [1]: efficacious
clinical safety and tolerability [1]: safe and well tolerated
reduction of prothrombin fragments 1+2 [2]: reduced prothrombin fragments 1+2 significantly more than unfractionated heparin
factor Xa inhibition in patients [3]: dose-dependent, rapid direct factor Xa inhibition
inhibition of free factor Xa [4]: inhibited
inhibition of factor Xa assembled in the prothrombinase complex [5]: inhibited
efficacy in models of thrombosis [6]: highly efficacious

COC(=O)[C@H](Cc1cccc(C(=N)N)c1)[C@@H](C)NC(=O)c1ccc(-c2cc[n+]([O-])cc2)cc1.O=C(O)c1ccccc1 [benzoic acid salt of methyl(2R,3R)-2-{3-[amino(imino)methyl]benzyl}-3-{[4-(1-oxidopyridin-4-yl)benzoyl]amino}butanoate]
Change In Mass (%) Desorption ([7]; Cycle 1, Target RH 0.0%): −0.035%
Change In Mass (%) Sorption ([7]; Cycle 1, Target RH 0.0%): 0.000%
Change In Mass (%) Desorption ([7]; Cycle 1, Target RH 10.0%): 0.215%
Change In Mass (%) Hysteresis ([7]; Cycle 1, Target RH 10.0%): 0.119%
Change In Mass (%) Sorption ([7]; Cycle 1, Target RH 10.0%): 0.096%
Change In Mass (%) Desorption ([7]; Cycle 1, Target RH 20.0%): 0.326%
Change In Mass (%) Hysteresis ([7]; Cycle 1, Target RH 20.0%): 0.146%
Change In Mass (%) Sorption ([7]; Cycle 1, Target RH 20.0%): 0.180%
Change In Mass (%) Desorption ([7]; Cycle 1, Target RH 40.0%): 0.534%
Change In Mass (%) Hysteresis ([7]; Cycle 1, Target RH 40.0%): 0.172%
Change In Mass (%) Sorption ([7]; Cycle 1, Target RH 40.0%): 0.363%
Change In Mass (%) Desorption ([7]; Cycle 1, Target RH 60.0%): 0.810%
Change In Mass (%) Hysteresis ([7]; Cycle 1, Target RH 60.0%): 0.214%
Change In Mass (%) Sorption ([7]; Cycle 1, Target RH 60.0%): 0.596%
Change In Mass (%) Desorption ([7]; Cycle 1, Target RH 80.0%): 1.300%
Change In Mass (%) Hysteresis ([7]; Cycle 1, Target RH 80.0%): 0.374%
Change In Mass (%) Sorption ([7]; Cycle 1, Target RH 80.0%): 0.926%
Change In Mass (%) Desorption ([7]; Cycle 1, Target RH 90.0%): 1.697%
Change In Mass (%) Hysteresis ([7]; Cycle 1, Target RH 90.0%): 0.290%
Change In Mass (%) Sorption ([7]; Cycle 1, Target RH 90.0%): 1.408%
Change In Mass (%) Desorption ([7]; Cycle 1, Target RH 95.0%): 2.031%
Change In Mass (%) Sorption ([7]; Cycle 1, Target RH 95.0%): 2.031%
Change In Mass (%) Desorption ([7]; Cycle 2, Target RH 0.0%): −0.056%
Change In Mass (%) Sorption ([7]; Cycle 2, Target RH 0.0%): −0.035%
Change In Mass (%) Desorption ([7]; Cycle 2, Target RH 10.0%): 0.198%
Change In Mass (%) Hysteresis ([7]; Cycle 2, Target RH 10.0%): 0.089%
Change In Mass (%) Sorption ([7]; Cycle 2, Target RH 10.0%): 0.109%
Change In Mass (%) Desorption ([7]; Cycle 2, Target RH 20.0%): 0.310%
Change In Mass (%) Hysteresis ([7]; Cycle 2, Target RH 20.0%): 0.084%
Change In Mass (%) Sorption ([7]; Cycle 2, Target RH 20.0%): 0.226%
Change In Mass (%) Desorption ([7]; Cycle 2, Target RH 40.0%): 0.523%
Change In Mass (%) Hysteresis ([7]; Cycle 2, Target RH 40.0%): 0.062%
Change In Mass (%) Sorption ([7]; Cycle 2, Target RH 40.0%): 0.461%
Change In Mass (%) Desorption ([7]; Cycle 2, Target RH 60.0%): 0.800%
Change In Mass (%) Hysteresis ([7]; Cycle 2, Target RH 60.0%): 0.058%
Change In Mass (%) Sorption ([7]; Cycle 2, Target RH 60.0%): 0.742%
Change In Mass (%) Desorption ([7]; Cycle 2, Target RH 80.0%): 1.299%
Change In Mass (%) Hysteresis ([7]; Cycle 2, Target RH 80.0%): 0.058%
Change In Mass (%) Sorption ([7]; Cycle 2, Target RH 80.0%): 1.241%
Change In Mass (%) Desorption ([7]; Cycle 2, Target RH 90.0%): 1.687%
Change In Mass (%) Hysteresis ([7]; Cycle 2, Target RH 90.0%): 0.071%
Change In Mass (%) Sorption ([7]; Cycle 2, Target RH 90.0%): 1.616%
Change In Mass (%) Desorption ([7]; Cycle 2, Target RH 95.0%): 1.999%
Change In Mass (%) Sorption ([7]; Cycle 2, Target RH 95.0%): 1.999%
water uptake (DVS) ([7]; at 80% RH): 1.1%
water uptake (DVS) ([7]; at 95% RH): 2.0%
hygroscopicity (absorption or adsorption of water molecules from the surrounding environment) [7]: favorable reduced absorption or adsorption of water molecules

CCC(C)O.COC(=O)[C@H](Cc1cccc(C(=N)N)c1)[C@@H](C)NC(=O)c1ccc(-c2cc[n+]([O-])cc2)cc1.COC(=O)[C@H](Cc1cccc(C(=N)N)c1)[C@@H](C)NC(=O)c1ccc(-c2cc[n+]([O-])cc2)cc1.Cl.Cl [Methyl(2R,3R)-2-{3-[amino(imino)methyl]benzyl}-3-{[4-(1-oxidopyridin-4-yl)benzoyl]amino}butanoate monohydrochloride-hemi-2-butanol-solvate]
Change In Mass (%) Desorption ([7]; Cycle 1, Target RH 0.0%): 0.35%
Change In Mass (%) Sorption ([7]; Cycle 1, Target RH 0.0%): 0.00%
Change In Mass (%) Desorption ([7]; Cycle 1, Target RH 10.0%): 3.33%
Change In Mass (%) Hysteresis ([7]; Cycle 1, Target RH 10.0%): 2.54%
Change In Mass (%) Sorption ([7]; Cycle 1, Target RH 10.0%): 0.79%
Change In Mass (%) Desorption ([7]; Cycle 1, Target RH 20.0%): 5.29%
Change In Mass (%) Hysteresis ([7]; Cycle 1, Target RH 20.0%): 4.01%
Change In Mass (%) Sorption ([7]; Cycle 1, Target RH 20.0%): 1.28%
Change In Mass (%) Desorption ([7]; Cycle 1, Target RH 40.0%): 7.14%
Change In Mass (%) Hysteresis ([7]; Cycle 1, Target RH 40.0%): 4.91%
Change In Mass (%) Sorption ([7]; Cycle 1, Target RH 40.0%): 2.22%
Change In Mass (%) Desorption ([7]; Cycle 1, Target RH 60.0%): 9.78%
Change In Mass (%) Hysteresis ([7]; Cycle 1, Target RH 60.0%): 6.09%
Change In Mass (%) Sorption ([7]; Cycle 1, Target RH 60.0%): 3.69%
Change In Mass (%) Desorption ([7]; Cycle 1, Target RH 80.0%): 16.92%
Change In Mass (%) Hysteresis ([7]; Cycle 1, Target RH 80.0%): −0.87%
Change In Mass (%) Sorption ([7]; Cycle 1, Target RH 80.0%): 17.79%
Change In Mass (%) Desorption ([7]; Cycle 1, Target RH 90.0%): 26.07%
Change In Mass (%) Hysteresis ([7]; Cycle 1, Target RH 90.0%): −0.59%
Change In Mass (%) Sorption ([7]; Cycle 1, Target RH 90.0%): 26.66%
Change In Mass (%) Desorption ([7]; Cycle 1, Target RH 95.0%): 34.13%
Change In Mass (%) Sorption ([7]; Cycle 1, Target RH 95.0%): 34.13%
Change In Mass (%) Desorption ([7]; Cycle 2, Target RH 0.0%): 0.34%
Change In Mass (%) Sorption ([7]; Cycle 2, Target RH 0.0%): 0.35%
Change In Mass (%) Desorption ([7]; Cycle 2, Target RH 10.0%): 3.17%
Change In Mass (%) Hysteresis ([7]; Cycle 2, Target RH 10.0%): 2.48%
Change In Mass (%) Sorption ([7]; Cycle 2, Target RH 10.0%): 0.69%
Change In Mass (%) Desorption ([7]; Cycle 2, Target RH 20.0%): 4.97%
Change In Mass (%) Hysteresis ([7]; Cycle 2, Target RH 20.0%): 3.65%
Change In Mass (%) Sorption ([7]; Cycle 2, Target RH 20.0%): 1.32%
Change In Mass (%) Desorption ([7]; Cycle 2, Target RH 40.0%): 6.78%
Change In Mass (%) Hysteresis ([7]; Cycle 2, Target RH 40.0%): 4.11%
Change In Mass (%) Sorption ([7]; Cycle 2, Target RH 40.0%): 2.67%
Change In Mass (%) Desorption ([7]; Cycle 2, Target RH 60.0%): 9.41%
Change In Mass (%) Hysteresis ([7]; Cycle 2, Target RH 60.0%): 4.84%
Change In Mass (%) Sorption ([7]; Cycle 2, Target RH 60.0%): 4.57%
Change In Mass (%) Desorption ([7]; Cycle 2, Target RH 80.0%): 16.37%
Change In Mass (%) Hysteresis ([7]; Cycle 2, Target RH 80.0%): 2.94%
Change In Mass (%) Sorption ([7]; Cycle 2, Target RH 80.0%): 13.43%
Change In Mass (%) Desorption ([7]; Cycle 2, Target RH 90.0%): 25.32%
Change In Mass (%) Hysteresis ([7]; Cycle 2, Target RH 90.0%): 1.41%
Change In Mass (%) Sorption ([7]; Cycle 2, Target RH 90.0%): 23.91%
Change In Mass (%) Desorption ([7]; Cycle 2, Target RH 95.0%): 32.86%
Change In Mass (%) Sorption ([7]; Cycle 2, Target RH 95.0%): 32.86%
hygroscopicity (absorption or adsorption of water molecules from the surrounding environment) [7]: hygroscopic
